Counter-ions that a name gives are not always drawn.
Assays:
[1] = Stability study of Compound 1 drug substance; format: physicochemical; details: for Chemical and physical stability (description, assay, related substances, water content, polymorphic form, chiral purity): 1 month / three months (Example 10)
Method: A stability study is conducted for Compound 1. Samples were stored at: 30° C.±2° C./65%±5% Relative Humidity (RH), or 40° C.±2° C./75%±5% RH. At regular intervals (e.g., initial, 1, 3, 6, 9, 12, 18, 24, and 36 months), tests are performed for description, assay, related substances, water content, polymorphic form, and chiral purity.
A stability study was conducted for Compound 1 crystalline free base Form 2. Samples were stored at: (1) 30° C.±2° C./65%±5% Relative Humidity (RH), with data collected at 0, 1, 3, 6, 9, and 12 months; and (2) 40° C.±2° C./75%±5% RH, with data collected at 0, 1, 3, and 6 months. At the indicated time points, tests were performed for description, assay, related substances, water content, polymorphic form, and chiral purity.

[2] = Dynamic vapour sorption (DVS); format: physicochemical; details: relative humidity from about 0 to about 90%, about 25° C.
Method: In one embodiment, the solid form is characterized by a DVS isotherm that matches the DVS isotherm depicted in FIG. 6. In one embodiment, the DVS isotherm is as measured at about 25° C.
Approximately, 10-20 mg of sample was placed into a mesh vapour sorption balance pan and loaded into a DVS Advantage dynamic vapour sorption balance by Surface Measurement Systems. The sample was subjected to a ramping profile from 40-90% relative humidity (RH) at 10% increments, maintaining the sample at each step until a stable weight had been achieved (dm/dt 0.004%, minimum step length 30 minutes, maximum step length 500 minutes) at 25° C. After completion of the sorption cycle, the sample was dried using the same procedure to 0% RH and then a second sorption cycle back to 40% RH. Two cycles were performed. The weight change during the sorption/desorption cycles were plotted, allowing for the hygroscopic nature of the sample to be determined. XRPD analysis was then carried out on any solid retained.

[3] = Solid-form stability study of salts of Compound 2 (75% RH, 40° C., 7 days); format: physicochemical; details: for Purity (%) After / Purity (%) Before: HPLC; for Purity (%) After / XRPD Pattern After: after 7 days at 75% RH and 40° C.; for Purity (%) Before: before stress test
Method: Solid-form stability studies were completed by weighing approximately 30 mg each of Form A of the camsylate, esylate, mesylate, and sulfate salts of Compound 2 into 4 mL vials and covering with a Kimwipe. The vials were placed inside a humidity chamber set to 75% RH at 40° C. for 7 days. The HPLC and XRPD data was collected to confirm the purity and identity of the solid forms. The four salts were physically and chemically stable. No decrease in purity (i.e. less than 0.1%) or form change was observed after a seven-day stress test at 75% relative humidity (RH) and 40° C. (Table 5).

[4] = Solubility of salts of Compound 2 and free base in distilled water (gravimetric); format: physicochemical; details: for Solubility (mg solid/mL water): distilled water, RT, stirred 3 days, gravimetric; for XRPD Pattern Recovered: solid recovered after slurry in water at RT
Method: Solubility of the scaled-up salts of Compound 2 and free base Compound 2 was assessed in distilled water at RT. Approximately 30 mg of solid was weighed directly into 2 mL vials, and a 6 mm stir bar was added to each vial. Water was then incrementally added to the vials (starting with 1 vol.) and the resulting slurries were left to stir for 10-15 min prior to the next addition. As all solids remained in slurries upon the addition of 1 mL of water, the gravimetric method was adopted, and the vials were stirred at RT for 3 days before centrifuging. Supernatant solutions were recovered and evaporated to dryness at 50° C. in atmosphere on a hot plate, then placed at 50° C. under vacuum (˜−29 inHg) for 3 h before final weighing.

[5] = Salt screen of Compound 2: XRPD after drying and humidification; details: vacuum 50° C. at least 3 h, >95% RH overnight
ROS1-positive NSCLC = ROS1-positive NSCLC patients; cited from earlier work
[6] = Solvent solubility screen; format: physicochemical; details: organic solvent or mixture, thermodynamic from solid; majority of the solvents investigated
Excerpt: Solids were recovered from these solutions by the addition of anti-solvent to give an indication of solid form, with Form 2 predominantly observed.

Row | SMILES | Purity (%) After [3] [%] | Purity (%) Before [3] [%] | XRPD Pattern After [3] | Solubility (mg solid/mL water) [4] [mg solid/mL water] | XRPD Pattern Recovered [4] | Stability of crystalline salt pattern to drying and humidification [5] | also measured
1 | CCn1nc(Cl)c2c1-c1cnc(N)c(c1)O[C@H](C)c1cc(F)ccc1-c1nn(C)cc1C2 [Form 2] |  |  |  |  |  |  | Chemical and physical stability (description, assay, related substances, polymorphic form, chiral purity) ([1]; 30° C.±2° C./65%±5% RH, 12 months (Example 21)): no meaningful change; Chemical and physical stability (description, assay, related substances, polymorphic form, chiral purity) ([1]; 40° C.±2° C./75%±5% RH, 6 months (Example 21)): no meaningful change; DVS weight increase [2]: about 0.3%
2 | CCn1cc(Cc2cn(C)nc2-c2ccc(F)cc2[C@@H](C)Oc2cc(Br)cnc2N)c(Cl)n1 [Camsylate Salt] | 99.65 | 99.59 | Form A | <3 | Form A | stable to drying and humidification | 
3 | C[C@@H](Oc1cc(-c2cnn(C3CCNCC3)c2)cnc1N)c1c(Cl)ccc(F)c1Cl [Crizotinib] |  |  |  |  |  |  | Median progression-free survival (ROS1-positive NSCLC): 9-19 months
4 | CCn1nc(Cl)c2c1-c1cnc(N)c(c1)O[C@H](C)c1cc(F)ccc1-c1nn(C)cc1C2 [lyophilized material] |  |  |  |  |  |  | solubility [6]: > 150 mg/mL
5 | CCn1nc(Cl)c2c1-c1cnc(N)c(c1)O[C@H](C)c1cc(F)ccc1-c1nn(C)cc1C2 [Compound 1] |  |  |  |  |  |  | Chemical and physical stability (description, assay, related substances, water content, polymorphic form, chiral purity) ([1]; 30° C.±2° C./65%±5% RH): No meaningful changes; Chemical and physical stability (description, assay, related substances, water content, polymorphic form, chiral purity) ([1]; 40° C.±2° C./75%±5% RH): No meaningful changes

Now from value to compound, other results behind:

Row | Purity (%) After [3] [%] | Purity (%) Before [3] [%] | XRPD Pattern After [3] | Solubility (mg solid/mL water) [4] [mg solid/mL water] | XRPD Pattern Recovered [4] | Stability of crystalline salt pattern to drying and humidification [5] | SMILES | also measured
6 | 99.94 | 99.92 | Form A | 8 | Form A | stable to drying and humidification | CCn1cc(Cc2cn(C)nc2-c2ccc(F)cc2[C@@H](C)Oc2cc(Br)cnc2N)c(Cl)n1 [Mesylate Salt] | 
7 | 99.97 | 99.97 | Form A | <3 | Form A | stable to drying and humidification | CCn1cc(Cc2cn(C)nc2-c2ccc(F)cc2[C@@H](C)Oc2cc(Br)cnc2N)c(Cl)n1 [Sulfate Salt] | 
8 | 99.75 | 99.75 | Form A | 5 | Form A | stable to drying and humidification | CCn1cc(Cc2cn(C)nc2-c2ccc(F)cc2[C@@H](C)Oc2cc(Br)cnc2N)c(Cl)n1 [Esylate Salt] | 

— patent US20230322797A1, “SOLID FORMS, PHARMACEUTICAL COMPOSITIONS AND PREPARATION OF HETEROAROMATIC MACROCYCLIC ETHER COMPOUNDS” (Nuvalent, Inc., priority 2022, published 2023)
